# From US10577368B2 (The United States of America, as represented by the …, priority 2013, dated 2020)
# Assays:
# [1] = target: r Sigma 1 (Rattus norvegicus (Rat), UniProt Q9R0C9); assay: Off-target binding, Sigma-1; conditions: 10 μM
# Text: (§1) The results are set forth below.
# [2] = target: r Sigma 2 (Rattus norvegicus (Rat), UniProt Q5U3Y7); assay: Off-target binding, Sigma-2; conditions: 10 μM
# Text: as §1
# [3] = target: mA1AR (Mus musculus (Mouse), UniProt Q60612); assay: Competition binding at mA1AR, HEK293 cell membranes; conditions: read-out: A1AR % inhibition, mouse data (m)
# [4] = tested on: muscarinic, adrenergic, dopamine, GABA, histamine, opiate, serotonin receptors and transporters; assay: Off-target binding panel (receptors and transporters of Table 5); conditions: for Interactions at other receptors of the off-target panel: 10 μM
# Text: as §1
# [5] = target: mA2AAR (Mus musculus (Mouse), UniProt Q60613); assay: Competition binding at mA2AAR, HEK293 cell membranes; conditions: read-out: A2AAR % inhibition, mouse data (m) (converted)
# [6] = target: hA1AR (Homo sapiens (Human), UniProt P30542); assay: Radioligand binding at hA1AR, CHO cell membranes, [3H]R-PIA; conditions: read-out: hA1AR % inhibition
# [7] = target: PBR (Homo sapiens (Human), UniProt P30536); assay: Off-target binding, PBR; conditions: 10 μM
# Text: as §1
# [8] = target: hA2AAR (Homo sapiens (Human), UniProt P29274); assay: Radioligand binding at hA2AAR, HEK293 cell membranes, [3H]CGS21680; conditions: read-out: hA2AAR % inhibition
# [9] = tested on: chronic constriction injury model of neuropathic pain; assay: CCI model of neuropathic pain, reversal of mechano-allodynia; format: in vivo, mice
# [10] = tested on: morphine-dependent rats; conditions: naloxone-precipitated withdrawal in morphine-dependent rats; cited from earlier work
# [11] = tested on: chronic constriction injury (CCI) model, mechano-allodynia; assay: Morphine analgesic tolerance in CCI model, co-administration with A3AR agonist; format: in vivo, mice
# [12] = tested on: Sprague Dawley rats; assay: Toxicity of MRS5698 dosed by gavage; format: in vivo, rat; conditions: up to 150 mg/kg by gavage
# Protocol: The formulation was dosed at up to 150 mg/kg by gavage to Sprague Dawley rats.
# [13] = target: human DAT (Homo sapiens (Human), UniProt Q01959); assay: Radioligand ([3H]WIN35428) binding at the dopamine transporter
# [14] = tested on: 5 CYP isozymes (1A2, 2C9, 2C19, 2D6, 3A4); assay: Inhibition of 5 CYP isozymes; format: in vitro ADME
# [15] = 3 μmol/kg p.o., mice, ipsilateral hind paw
# Chain of human DAT (Q01959 whole entry): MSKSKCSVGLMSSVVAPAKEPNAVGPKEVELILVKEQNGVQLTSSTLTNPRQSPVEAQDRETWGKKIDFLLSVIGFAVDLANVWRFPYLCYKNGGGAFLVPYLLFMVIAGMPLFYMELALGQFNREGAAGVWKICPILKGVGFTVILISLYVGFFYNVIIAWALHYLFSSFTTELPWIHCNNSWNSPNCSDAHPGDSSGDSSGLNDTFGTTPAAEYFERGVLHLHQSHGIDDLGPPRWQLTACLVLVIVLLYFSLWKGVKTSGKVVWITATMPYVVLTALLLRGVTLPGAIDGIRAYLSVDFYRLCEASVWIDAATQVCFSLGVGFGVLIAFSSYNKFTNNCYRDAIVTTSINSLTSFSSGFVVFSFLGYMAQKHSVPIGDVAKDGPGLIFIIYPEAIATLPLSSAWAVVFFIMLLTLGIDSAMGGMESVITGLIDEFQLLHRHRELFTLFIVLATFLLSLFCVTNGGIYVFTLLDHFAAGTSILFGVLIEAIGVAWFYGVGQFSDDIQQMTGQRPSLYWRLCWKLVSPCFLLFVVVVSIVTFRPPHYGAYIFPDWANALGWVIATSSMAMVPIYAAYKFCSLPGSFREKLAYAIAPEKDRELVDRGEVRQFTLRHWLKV
# Chain of PBR (P30536 whole entry, species assumed): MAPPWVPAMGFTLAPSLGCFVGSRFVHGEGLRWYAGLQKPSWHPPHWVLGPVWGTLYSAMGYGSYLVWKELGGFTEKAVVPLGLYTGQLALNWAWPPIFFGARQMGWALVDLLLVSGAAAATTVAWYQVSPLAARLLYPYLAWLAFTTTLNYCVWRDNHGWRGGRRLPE
# Chain of r Sigma 1 (Q9R0C9 whole entry): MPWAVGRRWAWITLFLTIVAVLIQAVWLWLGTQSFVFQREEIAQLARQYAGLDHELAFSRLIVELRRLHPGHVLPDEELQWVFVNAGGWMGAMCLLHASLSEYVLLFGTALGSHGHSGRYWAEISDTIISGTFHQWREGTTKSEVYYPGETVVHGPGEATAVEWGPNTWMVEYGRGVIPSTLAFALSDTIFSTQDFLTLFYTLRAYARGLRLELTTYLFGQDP
# Chain of hA1AR (P30542 whole entry): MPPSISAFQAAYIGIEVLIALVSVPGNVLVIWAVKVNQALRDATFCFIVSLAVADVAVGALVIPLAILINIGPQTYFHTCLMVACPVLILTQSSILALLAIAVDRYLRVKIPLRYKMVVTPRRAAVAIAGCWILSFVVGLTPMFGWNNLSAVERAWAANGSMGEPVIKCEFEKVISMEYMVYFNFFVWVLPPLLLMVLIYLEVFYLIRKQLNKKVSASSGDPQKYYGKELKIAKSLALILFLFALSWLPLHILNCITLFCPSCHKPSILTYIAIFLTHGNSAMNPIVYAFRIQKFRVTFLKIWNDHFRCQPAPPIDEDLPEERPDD
# Chain of mA2AAR (Q60613 whole entry): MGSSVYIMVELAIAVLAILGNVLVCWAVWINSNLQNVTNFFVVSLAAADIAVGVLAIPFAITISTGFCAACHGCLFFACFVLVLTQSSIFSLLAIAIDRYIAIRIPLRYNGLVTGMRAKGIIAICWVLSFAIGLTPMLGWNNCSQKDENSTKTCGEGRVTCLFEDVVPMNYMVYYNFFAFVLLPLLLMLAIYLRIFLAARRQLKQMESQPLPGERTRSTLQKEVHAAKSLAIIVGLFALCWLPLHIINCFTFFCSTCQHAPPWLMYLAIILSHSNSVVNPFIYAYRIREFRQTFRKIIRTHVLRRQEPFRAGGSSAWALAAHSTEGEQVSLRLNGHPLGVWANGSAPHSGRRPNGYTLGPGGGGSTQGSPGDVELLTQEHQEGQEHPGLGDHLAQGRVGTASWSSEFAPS
# Chain of hA2AAR (P29274 whole entry): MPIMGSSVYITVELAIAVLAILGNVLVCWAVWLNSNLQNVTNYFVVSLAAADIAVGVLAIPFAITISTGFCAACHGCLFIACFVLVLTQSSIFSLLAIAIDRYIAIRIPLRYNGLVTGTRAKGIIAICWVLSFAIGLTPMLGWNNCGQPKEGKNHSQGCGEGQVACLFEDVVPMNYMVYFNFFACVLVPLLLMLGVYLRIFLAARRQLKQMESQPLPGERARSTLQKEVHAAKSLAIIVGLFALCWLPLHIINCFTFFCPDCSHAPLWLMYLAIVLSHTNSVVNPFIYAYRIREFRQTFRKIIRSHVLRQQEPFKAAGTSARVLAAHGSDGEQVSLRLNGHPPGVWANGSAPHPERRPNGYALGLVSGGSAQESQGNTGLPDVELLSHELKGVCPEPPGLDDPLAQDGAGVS
# Chain of r Sigma 2 (Q5U3Y7 whole entry): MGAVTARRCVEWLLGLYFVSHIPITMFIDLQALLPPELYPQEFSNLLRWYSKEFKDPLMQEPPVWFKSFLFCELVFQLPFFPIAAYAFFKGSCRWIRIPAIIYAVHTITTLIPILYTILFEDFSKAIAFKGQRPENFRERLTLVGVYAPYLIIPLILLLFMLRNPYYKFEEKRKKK
# Chain of mA1AR (Q60612 whole entry): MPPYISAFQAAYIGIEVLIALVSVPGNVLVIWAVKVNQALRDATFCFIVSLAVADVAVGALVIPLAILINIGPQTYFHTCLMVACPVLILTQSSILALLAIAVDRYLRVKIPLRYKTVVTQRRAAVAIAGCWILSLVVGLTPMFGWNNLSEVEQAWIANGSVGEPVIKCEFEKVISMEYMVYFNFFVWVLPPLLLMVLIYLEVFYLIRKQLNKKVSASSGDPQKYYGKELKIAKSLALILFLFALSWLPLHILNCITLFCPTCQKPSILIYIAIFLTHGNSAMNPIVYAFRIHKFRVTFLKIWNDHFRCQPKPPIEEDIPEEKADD
compound,measurement,setting,value
"CNC(=O)[C@@]12C[C@@H]1[C@@H](n1cnc3c(NC)nc(C#Cc4cnn(C)c4)nc31)[C@H](O)[C@@H]2O [Compound 18, (1S,2R,3S,4R,5S)-2,3-Dihydroxy-N-methyl-4-(2-((1-methyl-1H-pyrazol-4-yl)ethynyl)-6-(methylamino)-9H-purin-9-yl)bicyclo[3.1.0]hexane-1-carboxamide]",Interaction at Sigma-1,[1],weak interactions
same,Interaction at Sigma-2,[2],weak interactions
same,inhibition at 10 µM,[3],72%
same,Off-target effects compared with MRS5698 and MRS5676,[4],significantly fewer off-target effects
same,Interactions at other receptors of the off-target panel,[4],No interactions
same,inhibition at 10 µM,[5],16%
same,inhibition at 10 µM,[6],35%
same,Interaction at PBR,[7],weak interactions
same,inhibition at 10 µM,[8],12 ± 6%
same,Max. effect Emax (% ± SEM),[9]; [15],87.3 ± 12.7%
same,Time of peak protection,[9]; [15],1 h
same,Efficacy in reversing NP in vivo (of full reversal at peak effect),[9]; CCI model,~100%
CNC(=O)[C@H]1O[C@@H](n2cnc3c(NCc4cccc(I)c4)ncnc32)[C@H](O)[C@@H]1O [IB-MECA],Effect on opioid dependence,[10],block opioid dependence
"CNC(=O)[C@@]12C[C@@H]1[C@@H](n1cnc3c(NCc4cccc(Cl)c4)nc(C#Cc4ccc(F)c(F)c4)nc31)C(O)[C@H]2O (some centres unmarked) [MRS5698, reference compound]",Analgesic effect of the A3AR agonist dose per se,[11]; […],no analgesic effects per se
same,Findings after oral dosing,[12],No abnormal findings
same,Interactions at other receptors of the off-target panel,[4],No interactions at other receptors
same,Interaction with DAT,[13],does not interact with DAT
CNC(=O)[C@]12CC1[C@@H](n1cnc3c(NC)nc(C#Cc4ccc(Br)s4)nc31)[C@H](O)C2O (some centres unmarked) [compound 100],IC50,[14],> 7 µM
CN1CC[C@]23c4c5ccc(O)c4O[C@H]2[C@@H](O)C=C[C@H]3[C@H]1C5 [morphine],Reversal of mechano-allodynia by morphine alone on daily dosing,[11]; given daily over 25 days,loses its ability to reverse mechano-allodynia
same,Reversal of mechano-allodynia by morphine alone,[11]; s.c. injection at day 7,near-to-maximal reversal of mechano-allodynia
